One compound from ChEMBL document CHEMBL5104196, “Discovery of Novel, Potent, and Selective Small-Molecule Menin-Mixed Lineage Leukemia Interaction Inhibitors through Attempting Introduction of Hydrophilic Groups” (J Med Chem, 2022) can be followed below.

Data set [1] is described as follows: Oral bioavailability in Sprague-Dawley rat at 15 mg/kg. The format is ADME, organism-based. Conditions: in vivo.
A short description of data set [2]: Total clearance in Sprague-Dawley rat at 5 mg/kg, iv. The format is ADME, organism-based. Conditions: in vivo.
For data set [3], the species on record is Homo sapiens. The experiment in a line: Inhibition of tyrosine kinase (unknown origin) at 1 uM in presence of ATP at Km concentration by Mobility shift assay relative to control.
The nature of data set [4]: Metabolic stability in human liver microsome assessed as intrinsic clearance measured upto 60 min by UPLC-MS/MS analysis. Conditions: microsomes, 1 h. The format is ADME. (In general: Liver microsomes are a subcellular fraction often used to study metabolism.)
Data set [5] can be described thus: Metabolic stability in Crab eating monkey liver assessed as intrinsic clearance measured upto 60 min by UPLC-MS/MS analysis. It is filed as ADME, tissue-based, Macaca fascicularis. Conditions: cynomolgus monkey, read-out: CLH.
The nature of data set [6]: Volume of distribution at steady state in Sprague-Dawley rat at 5 mg/kg, iv. The format is ADME, organism-based. The following applies: in vivo.
Data set [7] is described as follows: Metabolic stability in Crab eating monkey liver microsome assessed as compound remaining measured after 60 min by UPLC-MS/MS analysis. It is filed as ADME, Macaca fascicularis. The following applies: cynomolgus monkey, liver microsomes, read-out: Stability.
Data set [8] is described as follows: AUC (0 to t) in Sprague-Dawley rat at 15 mg/kg, po. It is filed as ADME, organism-based. Details: dose 15 mg/kg, route po. Conditions: in vivo.
Data set [9] in a line: Metabolic stability in Beagle dog liver microsome assessed as half life measured upto 60 min by UPLC-MS/MS analysis. It is filed as ADME, Canis lupus familiaris. Conditions: liver microsomes.
A short description of data set [10]: MRT in Sprague-Dawley rat at 5 mg/kg, iv. Conditions: in vivo. It is filed as ADME, organism-based.
Data set [11] concerns MV4-11. The experiment in a line: Downregulation of HOXA9 gene in human MV4-11 cells incubated for 24 hrs by real-time PCR analysis. Conditions: dose 0.1-10 µM, DDE = dose-dependent effect. It is filed as functional, cell-based. For orientation: In qPCR the cycle at which signal appears reflects the starting amount.
The species entered for data set [12] is Homo sapiens. The experiment in a line: Inhibition of TKL (unknown origin) at 1 uM in presence of ATP at Km concentration by Mobility shift assay relative to control.
The test system of data set [13] is MV4-11. Nature of the data set: Suppression of HOXA9 gene transcription in human MV4-11 cells xenografted in BALB/c nude mouse at 15 mg/kg, iv measured at 24 hrs by RT-PCR analysis. It is filed as functional, organism-based.
Data set [14] is described as follows: Metabolic stability in Beagle dog liver microsome assessed as intrinsic clearance measured upto 60 min by UPLC-MS/MS analysis. It is filed as ADME, Canis lupus familiaris. Conditions: microsomes, 1 h.
Data set [15] is described as follows: AUC (0 to t) in Sprague-Dawley rat at 5 mg/kg, iv. Details: dose 5 mg/kg, route iv. The format is ADME, organism-based. The following applies: in vivo.

SMILES strings stand for the structures. Calls of active or inactive are those of the source. The rule behind the calls is not given here.

What is called bioavailability is dose-corrected exposure relative to a reference, in per cent. As usually defined, the inhibition is the percentage by which the read-out fell short of the control. Usually Vdss stands for the apparent volume that relates the amount in the body to the concentration in plasma or blood. As usually defined, the AUC(0-t) is the area under the concentration-time curve up to a stated or last time point. One may read the half-life as how long it takes for the measured level to halve. One may read the MRT as a mean duration of stay, worked out from the concentration-time curve. In data set [1], `CN(C)CCOc1ccc2ncnc(NC3CCN(CC4CN(c5ccc(S(=O)(=O)C6CC6)cc5)C4)CC3)c2n1` came in with a bioavailability of 16.9%. The same compound registered a CL in [2] of 34.27 mL/min/kg. The inhibition in the data set filed under Homo sapiens [3] and in the data set filed under Homo sapiens [12] was under 25% each time. The CLint in data set [4] is 8.4 µL/min/mg; in data set [14], 13.9 µL/min/mg. The CLint scaled in data set [5] is 31.7 mL/min/kg. In data set [6], this compound returned a Vdss of 49.3 L/kg. Moreover, the remaining at 1 h in data set [7] stood at 52%. For the same compound, the AUC(0-t) in data set [8] turned out to be 864 ng·h/mL; in [15], 1700 ng·h/mL. For the same compound, the half-life in data set [9] came to 1.7 h. The MRT in data set [10] is 7.1 h. The Activity entry in the data set with MV4-11 [11] was “Dde”. Also, the outcome in the data set on MV4-11 [13] was Active.
